Experimental findings from patent US20240246960A1 (adMare Therapeutics Society, priority 2021, published 2024) are described below.

As usually defined, the IC50 is the concentration at which inhibition is half-maximal.

In one assay the target is T1, DNA-PK (Homo sapiens, UniProt P78527).
T1 construct: purchased Invitrogen PR9107A
Briefly: DNA-PK Assay for Biochemical Enzymatic Inhibition (ADP Glo Kinase assay). As to the method: A biochemical assay was performed to identify IC50 values against DNA-PK activity in a two-step reaction with a kinase reaction followed by ADP Glo™ Kinase assay Kit (Promega V9102).
Three-fold serial dilutions of compounds in DMSO were prepared in kinase assay buffer (50 mM HEPES pH 7.5, 20 mM MgCl2, 100 mM KCl, 50 μM DTT, 10 μg/ml calf thymus DNA, 0.01% Tween 20). Kinase assay buffer was used to prepare compound treatments to 0.02% DMSO (dimethyl sulphoxide) content. DMSO controls were prepared to produce a maximum and minimum luminescence signal for normalization. Substrate (Anaspec, AS-60210-5) and ATP (Promega V9102) and ATP mix was prepared by dilution in kinase assay buffer for 434.4 μM and 64.4 μM final assay concentrations, respectively. Compounds and control were added to 25 ng DNA-PK enzyme (Invitrogen, PR9107A) diluted in kinase buffer in assay plate (Corning 267459) and incubated for 15 minutes at room temperature prior to addition of substrate and ATP mix.
Throughout the assay, each time a reagent was added to the microplate, it was centrifuged for 1 minute at 1300 rcf. All reagents were added, and incubations carried out at room temperature. The reaction was then incubated for 60 minutes. ADP-ATP standards at 0, 4, 10, 40, 80, and 100% ADP (prepared as specified in the ADP Glo™ Kinase assay kit) were also added to the microplate at a volume equal to the total kinase reaction. The ADP Glo™ Kinase Assay kit was then used to quantify DNA-PK activity: following the 60-minute incubation, a 1:1 volume of ADP Glo reagent was added to all wells, then following a further 45-minute incubation, a 1:1 volume of Kinase Detection Reagent was added to all wells. After this two-step assay, plates were incubated in a Synergy-Neo2 plate reader for 30 minutes with gentle shaking, followed by endpoint luminescent read Luminescence data was normalized by subtracting the background signal and expressing all background-adjusted values as a percentage of the average maximum signal. The data was then expressed as percent inhibition by subtracting from 100% (i.e. maximum luminescent signal will be 0% inhibition) and the resulting data plotted against ten concentration points on a logarithmic scale, using GraphPad Prism. Non-linear regression analysis was performed on each concentration response curve and the log [inhibitor] vs response—variable slope (four parameters) equation was selected to generate IC50 values.
Background: In ADP-Glo the light output rises with the ADP produced.

In assay [1] the target is T2, DNA-PK phosphorylation at Serine 2056 (Homo sapiens, UniProt P78527).
T2 construct: host or cells: FaDu
Briefly: Cellular Assay for Inhibition of DNA-PK Phosphorylation at Serine 2056 (FaDu cells, neocarzinostatin, sandwich ELISA). Format: cell-based. As to the method:
FaDu cells were purchased from ATCC and maintained in MEM alpha medium (Life Technologies, cat. no. 12561) supplemented with 10% fetal bovine serum, and 1% GlutaMAX at 37° C. supplemented with 5% CO2. 50,000 cells were seeded to each well of a 96-well cell culture plate in 50 μL of culture medium and incubated for 16-24 hours. Three-fold serially diluted compounds were prepared in DMSO. Culture media was used to prepare compound treatments to 0.3% DMSO (dimethyl sulphoxide) content. Compound treatments were added to the cells for 1 hour prior incubation, followed by the addition of neocarzinostatin in fresh culture medium to 1 μg/mL final concentration for an additional 2 hours incubation to induce DNA DSBs (double-strand breaks). DMSO controls were incubated with fresh culture medium alone for the additional two hours incubation. The cells were then lysed and frozen at −20° C. Cell lysates were thawed on wet ice and protein concentrations quantified by BCA Protein Assay (Thermo # 23225). Lysis buffer was used to normalize lysates by protein content and all lysates were then investigated by sandwich ELISA by means of DNA-PK-specific antibodies (Abcam ab44815: total DNA-PK; ab124918: phosphoserine-2056 DNA-PK) in sandwich ELISA format on the MSD S600MM platform (MesoScale Discovery). % inhibition was calculated for all data points: =1−(DATA_PT−AVERAGE(DMSO controls))/(AVERAGE(NCS controls)−AVERAGE(DMSO controls)). Logarithm of the molar concentration of compound was plotted against percent inhibition to calculate IC50 values, with curve fit settings for data fit to log(inhibitor) vs. normalized response—Variable slope using curve fit software (GraphPad Prism).
(In general: ELISA stands for enzyme-linked immunosorbent assay.)

For the compound `Cn1cc([C@H]2CC[C@H](Oc3nc(N4CCOCC4)cc4ncc(Br)cc34)CC2)cn1` [Compound 3b, 4-(3-bromo-5-(((1r,4r)-4-(1-methyl-1H-pyrazol-4-yl)cyclohexyl)oxy)-1,6-naphthyridin-7-yl)morpholine], on DNA-PK (Table 1), the half-maximal inhibitory concentration (IC50) is 10 to 150 nM. For `Cn1cc([C@H]2CC[C@@H](Oc3nc(N4CCOCC4)cc4ncc(O)cc34)CC2)cn1` [Compound 4b, 5-(((1r,4r)-4-(1-methyl-1H-pyrazol-4-yl)cyclohexyl)oxy)-7-morpholino-1,6-naphthyridin-3-ol], on DNA-PK (Table 1), the IC50 was 10 to 150 nM.

Turning to `FC(F)(F)c1ccn([C@H]2CC[C@@H](Oc3nc(N4CCOCC4)cc4ncccc34)CC2)n1` [Compound 17c, 4-(5-(((1s,4s)-4-(3-(trifluoromethyl)-1H-pyrazol-1-yl)cyclohexyl)oxy)-1,6-naphthyridin-7-yl)morpholine], the IC50 at DNA-PK (Table 1) fell in the range of 10 to 150 nM. For the compound `FC(F)(F)c1ccnn1[C@H]1CC[C@@H](Oc2nc(N3CCOCC3)cc3ncccc23)CC1` [Compound 17d, 4-(5-(((1s,4s)-4-(5-(trifluoromethyl)-1H-pyrazol-1-yl)cyclohexyl)oxy)-1,6-naphthyridin-7-yl)morpholine], the results for the IC50 (on DNA-PK (Table 1); in assay [1] (Table 1)) were 1 to 10 nM and 100 to 1000 nM, respectively.

Turning to `COc1cnc(N[C@H]2CC[C@@H](Oc3nc(N4CCOCC4)cc4ncc(Br)cc34)CC2)nc1` [Compound 18c, N-((1s,4s)-4-((3-Bromo-7-morpholino-1,6-naphthyridin-5-yl)oxy)cyclohexyl)-5-methoxypyrimidin-2-amine], the IC50 at DNA-PK (Table 1) was in the range of 10 to 150 nM.

With `Cc1nccc(N[C@H]2CC[C@@H](Oc3nc(N4CCOCC4)cc4ncccc34)CC2)n1` [Compound 37, 2-methyl-N-((1s,4s)-4-((7-morpholino-1,6-naphthyridin-5-yl)oxy)cyclohexyl)pyrimidin-4-amine], the half-inhibitory concentration (IC50) was less than 0.5 nM at DNA-PK (Table 1) and 100 to 1000 nM in assay [1] (Table 1). As for `CCOC(=O)N[C@H]1CC[C@@H](Oc2nc(N3CCOCC3)cc3ncccc23)CC1` [Compound 104, Ethyl ((1s,4s)-4-((7-morpholino-1,6-naphthyridin-5-yl)oxy)cyclohexyl)carbamate], the half-inhibitory concentration (IC50) on DNA-PK (Table 1) lay within 10 to 150 nM. In the case of `O=C(N[C@H]1CC[C@@H](Oc2nc(N3CCOCC3)cc3ncccc23)CC1)c1cncnc1C(F)(F)F` [Compound 130, N-((1s,4s)-4-((7-morpholino-1,6-naphthyridin-5-yl)oxy)cyclohexyl)-4-(trifluoromethyl)pyrimidine-5-carboxamide], at DNA-PK (Table 1), the concentration for half-maximal inhibition (IC50) was 10 to 150 nM. Consider `O=S(=O)(N[C@H]1CC[C@@H](Oc2nc(N3CCOCC3)cc3ncccc23)CC1)c1ccccc1` [Compound 147, N-((1s,4s)-4-((7-Morpholino-1,6-naphthyridin-5-yl)oxy)cyclohexyl)benzenesulfonamide], for which the IC50 at DNA-PK (Table 1) lay in the range of 10 to 150 nM. In the case of `O=S(=O)(N[C@H]1CC[C@@H](Oc2nc(N3CCOCC3)cc3ncccc23)CC1)c1ccc(F)cc1` [Compound 148, 4-Fluoro-N-((1s,4s)-4-((7-morpholino-1,6-naphthyridin-5-yl)oxy)cyclohexyl)benzenesulfonamide], the IC50 on DNA-PK (Table 1) fell in the range of 10 to 150 nM. For `COc1ccc(S(=O)(=O)N[C@H]2CC[C@@H](Oc3nc(N4CCOCC4)cc4ncccc34)CC2)cc1` [Compound 149, 4-Methoxy-N-((1s,4s)-4-((7-morpholino-1,6-naphthyridin-5-yl)oxy)cyclohexyl)benzenesulfonamide], the concentration for half-maximal inhibition (IC50) on DNA-PK (Table 1) lay within 10 to 150 nM. For the compound `O=C([C@H]1CC[C@@H](Oc2nc(N3CCOCC3)cc3ncccc23)CC1)N1CCOCC1` [Compound 154a, morpholino((1S,4S)-4-((7-morpholino-1,6-naphthyridin-5-yl)oxy)cyclohexyl)methanone], the IC50 on DNA-PK (Table 1) is 10 to 150 nM.

Turning to `CN1CCN(C(=O)[C@H]2CC[C@@H](Oc3nc(N4CCOCC4)cc4ncccc34)CC2)CC1` [Compound 154d, (4-methylpiperazin-1-yl)((1S,4S)-4-((7-morpholino-1,6-naphthyridin-5-yl)oxy)cyclohexyl)methanone], the IC50 on DNA-PK (Table 1) was in the range of 10 to 150 nM. `c1ccc(CN[C@H]2CC[C@@H](Oc3nc(N4CCOCC4)cc4ncccc34)CC2)cc1` [Compound 155, (1s,4s)-N-benzyl-4-((7-morpholino-1,6-naphthyridin-5-yl)oxy)cyclohexan-1-amine]: the IC50 at DNA-PK (Table 1) fell in the range of 10 to 150 nM; in assay [1] (Table 1), 10000 to 30000 nM. Turning to `CC(=O)Nc1cnc2cc(N3CCOCC3)nc(O[C@H]3CC[C@@H](n4ccnc4)CC3)c2c1` [Compound 162, N-(5-(((1s,4s)-4-(1H-imidazol-1-yl)cyclohexyl)oxy)-7-morpholino-1,6-naphthyridin-3-yl)acetamide], the IC50 at DNA-PK (Table 1) is 10 to 150 nM. The same measure, in the same setting: the result for `CN(c1cnc2cc(N3CCOCC3)nc(O[C@H]3CC[C@@H](N(C)c4ncccn4)CC3)c2c1)S(C)(=O)=O` [Compound 199, N-methyl-N-(5-(((1s,4s)-4-(methyl(pyrimidin-2-yl)amino)cyclohexyl)oxy)-7-morpholino-1,6-naphthyridin-3-yl)methanesulfonamide] reads 10 to 150 nM. As for `CS(=O)(=O)Nc1cnc2cc(N3CCOCC3)nc(O[C@H]3CC[C@@H](Nc4ncc(C(N)=O)cn4)CC3)c2c1` [LFA028, 2-[[4-[[3-(Methanesulfonamido)-7-morpholino-1,6-naphthyridin-5-yl]oxy]cyclohexyl]amino]pyrimidine-5-carboxamide], the IC50 lay in the range of 0.5 to 1 nM on DNA-PK (Table 2) and 1000 to 10000 nM in assay [1] (Table 2).

In the case of `CNC(=O)c1cnc(N[C@H]2CC[C@@H](Oc3nc(N4CCOCC4)cc4ncc(NS(C)(=O)=O)cc34)CC2)nc1` [LFA029, 2-[[4-[[3-(Methanesulfonamido)-7-morpholino-1,6-naphthyridin-5-yl]oxy]cyclohexyl]amino]-N-methyl-pyrimidine-5-carboxamide], the half-maximal inhibitory concentration (IC50) at DNA-PK (Table 2) is less than 0.5 nM; in assay [1] (Table 2) it was 100 to 1000 nM. Consider `CS(=O)(=O)Nc1cnc2cc(N3CCOCC3)nc(O[C@H]3CC[C@@H](n4cc(F)cn4)CC3)c2c1` [LFA1061, N-[5-[4-(4-fluoropyrazol-1-yl)cyclohexoxy]-7-morpholino-1,6-naphthyridin-3-yl]methanesulfonamide], for which, in assay [1] (Table 3), the IC50 is less than 100 nM. In assay [1] (Table 3), `Cn1cc([C@H]2CC[C@@H](Oc3nc(N4CCOCC4)cc4ncc(NS(C)(=O)=O)cc34)CC2)cn1` [LFA1062, N-[5-[4-(1-methylpyrazol-4-yl)cyclohexoxy]-7-morpholino-1,6-naphthyridin-3-yl]methanesulfonamide] yielded an IC50 of 100 to 1000 nM. In assay [1] (Table 3), `Cn1cc([C@H]2CC[C@H](Oc3nc(N4CCOCC4)cc4ncc(NS(C)(=O)=O)cc34)CC2)cn1` [LFA1063, N-[5-[4-(1-methylpyrazol-4-yl)cyclohexoxy]-7-morpholino-1,6-naphthyridin-3-yl]methanesulfonamide] returned an IC50 of 10000 to 30000 nM. `CS(=O)(=O)Nc1cnc2cc(N3CCOCC3)nc(O[C@H]3CC[C@@H](c4cnccn4)CC3)c2c1` [LFA1064, N-[7-morpholino-5-(4-pyrazin-2-ylcyclohexoxy)-1,6-naphthyridin-3-yl]methanesulfonamide] displayed an IC50 in assay [1] (Table 3) of 100 to 1000 nM.

Compound `Oc1cnc2cc(N3CCOCC3)nc(O[C@H]3CC[C@@H](c4cnccn4)CC3)c2c1` [LFA1065, 7-morpholino-5-(4-pyrazin-2-ylcyclohexoxy)-1,6-naphthyridin-3-ol] gave a half-maximal inhibitory concentration (IC50) in assay [1] (Table 3) of less than 100 nM. In assay [1] (Table 3), “N-[5-[4-[(4,6-dimethylpyrimidin-2-yl)amino]cyclohexoxy]-7-morpholino-1,6-naphthyridin-3-yl]methanesulfonamide;2,2,2-trifluoroacetic acid [LFA1046]” gave an IC50 of 100 to 1000 nM.
